From patent US12522602B2, “Derivatives having 2,3-dihydro-1H-indene or 2,3-dihydrobenzofuran moiety or pharmaceutically acceptable salt thereof and pharmaceutical compositions comprising the same” (YUHAN CORPORATION, priority 2019, dated 2026)

Test system: GM1 production in Jurkat cells
Assay: cells
Type: cell-based
Settings: Homo sapiens, Jurkat, 72 h

With `O=C(NC1c2ccc(-c3ccc(C(F)(F)F)cc3)cc2CC12CC2)O[C@@H]1CN2CCC1CC2` (stereo partly drawn) [Example 391, (S)-quinuclidin-3-yl (5′-(4-(trifluoromethyl)phenyl)-1′,3′-dihydrospiro[cyclopropane-1,2′-inden]-1′-yl)carbamate] as the molecule, how does the IC50 read?
Its IC50 is 55.3 nM.

How did the IC50 turn out when `CCc1ccc(-c2cc3c(cc2F)C(NC(=O)O[C@@H]2CN4CCC2CC4)C(C)(C)C3)cc1` (stereo partly drawn) [Example 349, (S)-quinuclidin-3-yl (5-(4-ethylphenyl)-6-fluoro-2,2-dimethyl-2,3-dihydro-1H-inden-1-yl)carbamate] was run?
Its IC50 is 10.3 nM.

For `COc1ccc(-c2ccc3c(c2)CC(C)(C)C3NC(=O)O[C@@H]2CN3CCC2CC3)c(Cl)c1Cl` (stereo partly drawn) [Example 126, (S)-quinuclidin-3-yl (5-(2,3-dichloro-4-methoxyphenyl)-2,2-dimethyl-2,3-dihydro-1H-inden-1-yl)carbamate], which IC50 is on record?
Its IC50 is 50.5 nM.

How did the IC50 turn out when `O=C(NC1CCc2cc(-c3ccccc3OC(F)(F)F)ccc21)O[C@@H]1CN2CCC1CC2` (stereo partly drawn) [Example 12, (S)-quinuclidin-3-yl (5-(2-(trifluoromethoxy)phenyl)-2,3-dihydro-1H-inden-1-yl)carbamate] was run?
Its IC50 is 73 nM.

`CC1(C)Cc2cc(-c3ccc(OCCN4CCOCC4)cc3)ccc2C1NC(=O)O[C@@H]1CN2CCC1CC2` (stereo partly drawn) [Example 117, (S)-quinuclidin-3-yl (2,2-dimethyl-5-(4-(2-morpholinoethoxy)phenyl)-2,3-dihydro-1H-inden-1-yl)carbamate] was tested. Which IC50 did it give?
The IC50 was 41.8 nM.

Which IC50 does the source give for `O=C(NC1CCc2ccc(-c3cc(F)c(F)cc3F)cc21)O[C@@H]1CN2CCC1CC2` (stereo partly drawn) [Example 44, (S)-quinuclidin-3-yl (6-(2,4,5-trifluorophenyl)-2,3-dihydro-1H-inden-1-yl)carbamate] here?
The IC50 was 35.2 nM.

For `CC1(C)Cc2cc(-c3ccc(OC(F)(F)F)cc3)ccc2C1NC(=O)O[C@@H]1CN2CCC1CC2` (stereo partly drawn) [Example 76, (S)-quinuclidin-3-yl (2,2-dimethyl-5-(4-(trifluoromethoxy)phenyl)-2,3-dihydro-1H-inden-1-yl)carbamate], which IC50 is on record?
The IC50 was 3.7 nM.

Which IC50 does the source give for `CCCCOc1cccc(-c2ccc3c(c2)CC(C)(C)C3NC(=O)O[C@@H]2CN3CCC2CC3)c1` (stereo partly drawn) [Example 218, (S)-quinuclidin-3-yl (5-(3-butoxyphenyl)-2,2-dimethyl-2,3-dihydro-1H-inden-1-yl)carbamate] here?
Its IC50 is 6.7 nM.

With `COc1cc2c(cc1-c1ccc(OC(C)C)c(Cl)c1)CC(C)(C)C2NC(=O)O[C@@H]1CN2CCC1CC2` (stereo partly drawn) [Example 322, (S)-quinuclidin-3-yl (5-(3-chloro-4-isopropoxyphenyl)-6-methoxy-2,2-dimethyl-2,3-dihydro-1H-inden-1-yl)carbamate] as the molecule, how does the IC50 read?
Its IC50 is 24.4 nM.

`CCC1(CC)Cc2cc(-c3ccc(OC)cc3OC)ccc2C1NC(=O)O[C@@H]1CN2CCC1CC2` (stereo partly drawn) [Example 296, (S)-quinuclidin-3-yl (5-(2,4-dimethoxyphenyl)-2,2-diethyl-2,3-dihydro-1H-inden-1-yl)carbamate] was tested. Which IC50 did it give?
The IC50 was 15.6 nM.

How did the IC50 turn out when `CC1(C)Cc2cc(-c3ccc(N4CCOCC4)c(Cl)c3)ccc2C1NC(=O)O[C@@H]1CN2CCC1CC2` (stereo partly drawn) [Example 153, (S)-quinuclidin-3-yl (5-(3-chloro-4-morpholinophenyl)-2,2-dimethyl-2,3-dihydro-1H-inden-1-yl)carbamate] was run?
The IC50 was 41.4 nM.

`CC(C)Cc1ccc(-c2ccc3c(c2)CC(C)(C)C3NC(=O)O[C@@H]2CN3CCC2CC3)cc1` (stereo partly drawn) [Example 161, (S)-quinuclidin-3-yl (5-(4-isobutylphenyl)-2,2-dimethyl-2,3-dihydro-1H-inden-1-yl)carbamate] was tested. Which IC50 did it give?
The IC50 was 10.8 nM.

With `COc1c(C)cc(-c2ccc3c(c2)CC(C)(C)C3NC(=O)O[C@@H]2CN3CCC2CC3)cc1C` (stereo partly drawn) [Example 195, (S)-quinuclidin-3-yl (5-(4-methoxy-3,5-dimethylphenyl)-2,2-dimethyl-2,3-dihydro-1H-inden-1-yl)carbamate] as the molecule, how does the IC50 read?
The IC50 was 36.1 nM.

With `CC1(C)Cc2cc(-c3ccc(OCC4CC4)nc3)ccc2C1NC(=O)O[C@@H]1CN2CCC1CC2` (stereo partly drawn) [Example 185, (S)-quinuclidin-3-yl (5-(6-(cyclopropylmethoxy)pyridin-3-yl)-2,2-dimethyl-2,3-dihydro-1H-inden-1-yl)carbamate] as the molecule, how does the IC50 read?
Its IC50 is 11.1 nM.

How did the IC50 turn out when `CCCCOc1ccc(-c2ccc3c(c2)CC(C)(C)C3NC(=O)O[C@@H]2CN3CCC2CC3)cc1` (stereo partly drawn) [Example 270, (S)-quinuclidin-3-yl (5-(4-butoxyphenyl)-2,2-dimethyl-2,3-dihydro-1H-inden-1-yl)carbamate] was run?
The IC50 was 2.3 nM.

Which IC50 does the source give for `COc1cc2c(cc1-c1ccc(C(C)(C)C)cc1)CC(C)(C)C2NC(=O)O[C@@H]1CN2CCC1CC2` (stereo partly drawn) [Example 316, (S)-quinuclidin-3-yl (5-(4-(tert-butyl)phenyl)-6-methoxy-2,2-dimethyl-2,3-dihydro-1H-inden-1-yl)carbamate] here?
Its IC50 is 13.3 nM.

For `O=C(NC1CCc2ccc(-c3cccc(F)c3)cc21)O[C@@H]1CN2CCC1CC2` (stereo partly drawn) [Example 29, (S)-quinuclidin-3-yl (6-(3-fluorophenyl)-2,3-dihydro-1H-inden-1-yl)carbamate], which IC50 is on record?
The IC50 was 63 nM.

`CCOc1ccc(F)cc1-c1ccc2c(c1)CC(C)(C)C2NC(=O)O[C@@H]1CN2CCC1CC2` (stereo partly drawn) [Example 256, (S)-quinuclidin-3-yl (5-(2-ethoxy-5-fluorophenyl)-2,2-dimethyl-2,3-dihydro-1H-inden-1-yl)carbamate] was tested. Which IC50 did it give?
Its IC50 is 24.6 nM.

For `CCC1(CC)Cc2cc(-c3cc(OC)ccc3OC)ccc2C1NC(=O)O[C@@H]1CN2CCC1CC2` (stereo partly drawn) [Example 297, (S)-quinuclidin-3-yl (5-(2,5-dimethoxyphenyl)-2,2-diethyl-2,3-dihydro-1H-inden-1-yl)carbamate], which IC50 is on record?
Its IC50 is 3 nM.

`CC1(C)Cc2cc(-c3cccc(OCCF)c3)ccc2C1NC(=O)O[C@@H]1CN2CCC1CC2` (stereo partly drawn) [Example 197, (S)-quinuclidin-3-yl (5-(3-(2-fluoroethoxy)phenyl)-2,2-dimethyl-2,3-dihydro-1H-inden-1-yl)carbamate] was tested. Which IC50 did it give?
Its IC50 is 8.7 nM.

Which IC50 does the source give for `O=C(NC1COc2cc(-c3cccc(C(F)(F)F)c3)ccc21)O[C@@H]1CN2CCC1CC2` (stereo partly drawn) [Example 404, (S)-quinuclidin-3-yl (6-(3-(trifluoromethyl)phenyl)-2,3-dihydrobenzofuran-3-yl)carbamate] here?
The IC50 was 25.9 nM.

For `CC(C)c1cccc(-c2ccc3c(c2)CC(C)(C)C3NC(=O)O[C@@H]2CN3CCC2CC3)c1` (stereo partly drawn) [Example 109, (S)-quinuclidin-3-yl (5-(3-isopropylphenyl)-2,2-dimethyl-2,3-dihydro-1H-inden-1-yl)carbamate], which IC50 is on record?
Its IC50 is 7.8 nM.

Which IC50 does the source give for `CC1(C)Cc2cc(-c3ccccc3OC(F)(F)F)ccc2C1NC(=O)O[C@@H]1CN2CCC1CC2` (stereo partly drawn) [Example 84, (S)-quinuclidin-3-yl (2,2-dimethyl-5-(2-(trifluoromethoxy)phenyl)-2,3-dihydro-1H-inden-1-yl)carbamate] here?
The IC50 was 4.9 nM.

For `COc1ccc(F)c(-c2ccc3c(c2)CC(C)(C)C3NC(=O)O[C@@H]2CN3CCC2CC3)c1` (stereo partly drawn) [Example 230, (S)-quinuclidin-3-yl (5-(2-fluoro-5-methoxyphenyl)-2,2-dimethyl-2,3-dihydro-1H-inden-1-yl)carbamate], which IC50 is on record?
The IC50 was 30.8 nM.

For `CCCOc1cccc(-c2cc3c(cc2OC)C(NC(=O)O[C@@H]2CN4CCC2CC4)C(C)(C)C3)c1` (stereo partly drawn) [Example 340, (S)-quinuclidin-3-yl (6-methoxy-2,2-dimethyl-5-(3-propoxyphenyl)-2,3-dihydro-1H-inden-1-yl)carbamate], which IC50 is on record?
The IC50 was 43.8 nM.

Same assay, conditions: read-out: IC50

How did the IC50 turn out when `CC1(C)Cc2cc(-c3cnc4ccccc4c3)ccc2C1NC(=O)O[C@@H]1CN2CCC1CC2` (stereo partly drawn) [Example 143, (S)-quinuclidin-3-yl (2,2-dimethyl-5-(quinolin-3-yl)-2,3-dihydro-1H-inden-1-yl)carbamate] was run?
Its IC50 is 25.2 nM.
